# Measured values published in patent US11590139B2, “Substituted aminopurine compounds, compositions thereof, and methods of treatment therewith” (Signal Pharmaceuticals, LLC, priority 2014, dated 2023).
# pIC50: −log10 of the molar value.
# Tested on: Lox-IMVI melanoma cell line
# Assay: Lox-IMVI anti-proliferative assay (growth inhibition, Cell Titer-Glo)
# Assay type: cell-based, human
# Conditions: Homo sapiens; IC50 activity level in the cell-based Lox-IMVI anti-proliferative assay; read-out: Activity
# How it was run: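 Viability read by ATP luminescence (Cell Titer-Glo) at t0 and after 72 h at 37 °C, 5% CO2, with normalisation to DMSO-treated cells. Compound tested at 0.5 nM–10 μM in 3-fold, 10-point series (0.2% DMSO final) on Lox-IMVI in RPMI+10% FBS; IC50 by 4-parameter sigmoidal fit.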
row,SMILES,pIC50
1,"NC(=O)[C@H]1CC[C@@H](n2c(Nc3c(F)cc(F)cc3F)nc3cnc(N[C@@H]4CCC[C@H]4O)nc32)CC1 [Example 249, (1S,4s)-4-(2-((1R,2R)-2-hydroxycyclopentylamino)-8-(2,4,6-tnfluorophenylamino)-9H-purin-9-yl)cyclohexanecarboxamide]",< 6.00
2,"NC(=O)[C@H]1CC[C@@H](n2c(Nc3c(F)cc(F)cc3Cl)nc3cnc(N[C@@H]4CCOC4)nc32)CC1 [Example 199, (1S,4s)-4-(8-(2-chloro-4,6-difluorophenylamino)-2-((R)-tetrahydrofuran-3-ylamino)-9H-purin-9-yl)cyclohexanecarboxamide]",6.00 to 6.30

# More lines, now with the values ahead:
row,pIC50,SMILES
1,6.00 to 6.30,"NC(=O)[C@H]1CC[C@@H](n2c(Nc3c(Cl)cc(Cl)cc3Cl)nc3cnc(N[C@H]4COC[C@@H]4O)nc32)CC1 [Example 313, (1R,4s)-4-(2-((3S,4R)-4-hydroxytetrahydrofuran-3-ylamino)-8-(2,4,6-trichlorophenylamino)-9H-purin-9-yl)cyclohexanecarboxamide]"
2,< 6.00,"NC(=O)[C@H]1CC[C@@H](n2c(Nc3ccc(Cl)c(F)c3Cl)nc3cnc(NC4CCOCC4)nc32)CC1 [Example 82, (1s,4s)-4-(8-(2,4-dichloro-3-fluorophenylamino)-2-(tetrahydro-2H-pyran-4-ylamino)-9H-purin-9-yl)cyclohexanecarboxamide]"
3,< 6.00,"Cc1c(Nc2nc3cnc(NC4CCOCC4)nc3n2[C@H]2CC[C@@H](C(N)=O)CC2)ccc(Cl)c1F [Example 89, (1s,4s)-4-(8-(4-chloro-3-fluoro-2-methylphenylamino)-2-(tetrahydro-2H-pyran-4-ylamino)-9H-purin-9-yl)cyclohexanecarboxamide]"
4,< 6.00,"C[C@H](CO)Nc1ncc2nc(Nc3c(F)cc(F)cc3Cl)n([C@H]3CC[C@@H](C(N)=O)CC3)c2n1 [Example 134, (1S,4s)-4-(8-(2-chloro-4,6-difluorophenylamino)-2-((R)-1-hydroxypropan-2-ylamino)-9H-purin-9-yl)cyclohexanecarboxamide]"
5,< 6.00,"CC(C)Nc1ncc2nc(Nc3ccc(Cl)cc3Cl)n([C@H]3CC[C@@H](C(N)=O)CC3)c2n1 [Example 96, (1s,4s)-4-(8-(2,4-dichlorophenylamino)-2-(isopropylamino)-9H-purin-9-yl)cyclohexanecarboxamide]"
6,> 6.60,NC(=O)[C@H]1CC[C@@H](n2c(Nc3c(F)cc(F)cc3Cl)nc3cnc(NC4CCOCC4)nc32)CC1 [Example 53]
7,> 6.60,"C[C@@H](CO)Nc1ncc2nc(Nc3c(F)cc(Cl)cc3Cl)n([C@H]3CC[C@@H](C(N)=O)CC3)c2n1 [Example 135, (1R,4s)-4-(8-(2,4-dichloro-6-fluorophenylamino)-2-((S)-1-hydroxypropan-2-ylamino)-9H-purin-9-yl)cyclohexanecarboxamide]"
8,6.00 to 6.30,"NC(=O)[C@H]1CC[C@@H](n2c(Nc3c(F)cc(Cl)cc3F)nc3cnc(N[C@@H]4CCOC4)nc32)CC1 [Example 221, (1S,4s)-4-(8-(4-chloro-2,6-difluorophenylamino)-2-((R)-tetrahydrofuran-3-ylamino)-9H-purin-9-yl)cyclohexanecarboxamide]"

# Same assay, conditions: Homo sapiens; Lox-IMVI anti-proliferative assay, IC50 activity level; read-out: Activity
row,SMILES,pIC50
1,"C[C@]1(C(N)=O)CC[C@@H](n2c(Nc3c(F)cc(Cl)cc3F)nc3cnc(NC4CC(F)(F)C4)nc32)CC1 [Example 581, (1s,4s)-4-(8-(4-chloro-2,6-difluorophenylamino)-2-(3,3-difluorocyclobutylamino)-9H-purin-9-yl)-1-methylcyclohexanecarboxamide]",> 6.60
2,"NC(=O)[C@H]1CC[C@@H](n2c(Nc3c(F)cc(F)cc3Cl)nc3cnc(N[C@@H]4CCCC[C@H]4O)nc32)CC1 [Example 466, (1S,4s)-4-(8-(2-chloro-4,6-difluorophenylamino)-2-((1R,2R)-2-hydroxycyclohexylamino)-9H-purin-9-yl)cyclohexanecarboxamide]",< 6.00
3,"C[C@H]1COCC[C@H]1Nc1ncc2nc(Nc3c(Cl)cc(C#N)cc3Cl)n([C@H]3CC[C@@H](C(N)=O)CC3)c2n1 [Example 497, (1S,4s)-4-(8-(2,6-dichloro-4-cyanophenylamino)-2-((3R,4R)-3-methyltetrahydro-2H-pyran-4-ylamino)-9H-purin-9-yl)cyclohexanecarboxamide]",> 6.60
4,"C[C@]1(C(N)=O)CC[C@@H](n2c(Nc3c(Cl)cc(C#N)cc3Cl)nc3cnc(NC4CCOCC4)nc32)CC1 [Example 535, (1s,4s)-4-(8-(2,6-dichloro-4-cyanophenylamino)-2-(tetrahydro-2H-pyran-4-ylamino)-9H-purin-9-yl)-1-methylcyclohexanecarboxamide]",> 6.60

# The next lines start with the values.
row,pIC50,SMILES
1,6.00 to 6.30,"C[C@H]1COCC[C@@H]1Nc1ncc2nc(Nc3c(Cl)cc(Cl)cc3Cl)n([C@H]3CC[C@@H](C(N)=O)CC3)c2n1 [Example 500, (1R,4s)-4-(2-((3R,4S)-3-methyltetrahydro-2H-pyran-4-ylamino)-8-(2,4,6-trichlorophenylamino)-9H-purin-9-yl)cyclohexanecarboxamide]"
2,< 6.00,"COC(=O)N1CCCC(Nc2ncc3nc(Nc4c(F)cc(F)cc4F)n([C@H]4CC[C@@H](C(N)=O)CC4)c3n2)C1 (stereo partly drawn) [Example 403, (R)-methyl 3-(9-((1s,4S)-4-carbamoylcyclohexyl)-8-(2,4,6-tnfluorophenylamino)-9H-purin-2-ylamino)piperidine-1-carboxylate]"
3,6.00 to 6.30,"C[C@]1(O)CCC[C@@H](Nc2ncc3nc(Nc4c(F)cc(Cl)cc4Cl)n([C@H]4CC[C@@H](C(N)=O)CC4)c3n2)C1 [Example 427, (1S,4s)-4-(8-(2,4-dichloro-6-fluorophenylamino)-2-((1R,3S)-3-hydroxy-3-methylcyclohexylamino)-9H-purin-9-yl)cyclohexanecarboxamide]"

# Same assay, conditions: Homo sapiens; Lox-IMVI melanoma cell line, anti-proliferative assay; read-out: Activity (IC50 activity level)
row,SMILES,pIC50
1,"NC(=O)[C@H]1CC[C@@H](n2c(Nc3c(F)cc(Cl)cc3Cl)nc3cnc(N[C@@H]4CCCN(c5ccccc5)C4)nc32)CC1 [Example 748, (1S,4s)-4-(8-(2,4-dichloro-6-fluorophenylamino)-2-((R)-1-phenylpiperidin-3-ylamino)-9H-purin-9-yl)cyclohexanecarboxamide]",< 6.00
2,"C[C@]1(C(N)=O)CC[C@@H](n2c(Nc3c(Cl)cc(Cl)cc3Cl)nc3cnc(N[C@H]4CCOC[C@H]4F)nc32)CC1 [Example 719, (1R,4s)-4-(2-((3S,4S)-3-fluorotetrahydro-2H-pyran-4-ylamino)-8-(2,4,6-trichlorophenylamino)-9H-purin-9-yl)-1-methylcyclohexanecarboxamide]",> 6.60
3,"CC(C)OC(=O)N1CCC[C@@H](Nc2ncc3nc(Nc4c(F)cc(Cl)cc4Cl)n([C@H]4CC[C@@H](C(N)=O)CC4)c3n2)C1 [Example 774, (R)-isopropyl 3-(9-((1s,4S)-4-carbamoylcyclohexyl)-8-(2,4-dichloro-6-fluorophenylamino)-9H-purin-2-ylamino)piperidine-1-carboxylate]",6.30 to 6.60

# More lines, now with the values ahead:
row,pIC50,SMILES
1,< 6.00,"CC(C)N1CCC[C@@H](Nc2ncc3nc(Nc4c(F)cc(Cl)cc4Cl)n([C@H]4CC[C@@H](C(N)=O)CC4)c3n2)C1 [Example 741, (1S,4s)-4-(8-(2,4-dichloro-6-fluorophenylamino)-2-((R)-1-isopropylpiperidin-3-ylamino)-9H-purin-9-yl)cyclohexanecarboxamide]"
2,6.00 to 6.30,"C[C@]1(C(N)=O)CC[C@@H](n2c(Nc3c(F)cc(Cl)cc3Cl)nc3cnc(N[C@@H]4CCC[C@@H](O)C4)nc32)CC1 [Example 620, (1S,4s)-4-(8-(2,4-dichloro-6-fluorophenylamino)-2-((1R,3R)-3-hydroxycyclohexylamino)-9H-purin-9-yl)-1-methylcyclohexanecarboxamide]"
